Assays:
[1] = system: acetic acid-induced writhes; experiment: Acetic acid-induced writhing, oral administration; format: in vivo, Albino male CD-1 mice; conditions: 100 mg/kg orally 1 hour prior to i.p. acetic acid
Experimental: In this example, galvanic particulates produced by the process of Example 1 were evaluated for analgesic activity. Aspirin, a non-steroidal analgesic agent, which is known to show efficacy in this model, was included as a reference compound. Albino male CD-1 mice, weighing 24±2 g were used in the study. Galvanic particulates or aspirin were prepared in deionized water (DI Water) and were administered orally at a concentration of 100 mg/kg to mice 1 hour prior to injection of acetic acid. A […] of a 0.5% acetic acid solution was injected intraperitoneally, and the number of acetic acid-induced writhes were counted by an observer blinded to the treatment groups. A 50% decrease in the number of writhes indicated analgesic activity.

[2] = system: oxazolone-induced skin inflammation; experiment: Murine model of contact hypersensitivity (oxazolone ear inflammation), topical; format: in vivo, Albino male CD-1 mice; conditions: 1 mg/ml, 20 μl to left ear 1 hour after oxazolone challenge; ear biopsy weight at 24 hours

| SMILES | Analgesic Effectiveness (Percent Reduction Writhes) [1] [%] | Total Number of Writhes (Mean ± Std Dev) ([1]; vehicle 11.4 ± 6.1) | Percent Inhibition of Skin Inflammation [2] |
| --- | --- | --- | --- |
| CC(=O)Oc1ccccc1C(=O)O [Aspirin] | 56 | 5.0 ± 3.6 | – |
| C[C@]12CCC(=O)C=C1CC[C@@H]1[C@@H]2[C@@H](O)C[C@@]2(C)[C@H]1CC[C@]2(O)C(=O)CO [Hydrocortisone] | – | – | 70.3% ± 6.6% |
